According to ChEMBL document CHEMBL3593211, “Digging Deep for New Compounds from the Compass Plant, Silphium laciniatum” (J Nat Prod, 2015):

Tested on: NCI-H460
Experiment: Cytotoxicity against human NCI-H460 cells incubated for 72 hrs by cell-titer 96 aqueous non-radioactive cell proliferation assay
Assay type: functional, cell-based
Details: NCI-H460, 72 h

`CC(=O)OC/C(=C/CO)[C@@H]1C[C@@H]2[C@@]3(C)CCCC(C)(C)[C@@H]3CC[C@@]2(C)O1` and `CC1(C)CCC[C@]2(C)[C@H]3C[C@@H](/C(=C\CO)CO)O[C@]3(C)CC[C@@H]12` cannot be ordered by IC50: greater than 10 µM for the first, greater than 10 µM for the second.

`CC(=O)OC[C@]1([C@@H]2C[C@@H]3[C@@]4(C)CCCC(C)(C)[C@@H]4CC[C@@]3(C)O2)O[C@H]1CO` and `CC(=O)OC[C@@]1([C@@H]2C[C@@H]3[C@@]4(C)CCCC(C)(C)[C@@H]4CC[C@@]3(C)O2)O[C@@H]1CO` cannot be ordered by IC50: greater than 10 µM for the first, greater than 10 µM for the second.

`CC(=O)OCC(O)(C(O)CO)[C@@H]1C[C@@H]2[C@@]3(C)CCCC(C)(C)[C@@H]3CC[C@@]2(C)O1` (some centres undefined) and `CC(=O)OCC(O)C(O)(CO)[C@@H]1C[C@@H]2[C@@]3(C)CCCC(C)(C)[C@@H]3CC[C@@]2(C)O1` (some centres undefined) cannot be ordered by IC50: greater than 10 µM for the first, greater than 10 µM for the second.

`CC1(C)CCC[C@]2(C)[C@H]3C[C@@H](C(O)(CO)C(O)CO)O[C@]3(C)CC[C@@H]12` (some centres undefined) and `CC1(C)CCC[C@]2(C)[C@H]3C[C@@H]([C@@]4(CO)O[C@H]4CO)O[C@]3(C)CC[C@@H]12` cannot be ordered by IC50: greater than 10 µM for the first, greater than 10 µM for the second.

First: C/C(=C\CC/C=C(\C)CC/C=C(\C)CCC(O)C(C)(C)O)C/C=C/[C@@]1(C)CC[C@@H](C(C)(C)O)O1 (some centres undefined)
Second: C/C(=C\CCC/C(C)=C/C(=O)C[C@@]1(C)CC[C@@H](C(C)(C)O)O1)CC/C=C(\C)CCC(O)C(C)(C)O (some centres undefined)
The IC50 of the first is 1.5-fold higher: 9 µM for the first, 6 µM for the second. The second is the more potent here.

`CC1(C)CC[C@]2(C(=O)O)CC[C@]3(C)C(=CC[C@@H]4[C@@]5(C)CC[C@H](O[C@@H]6O[C@H](C(=O)O)[C@@H](O)[C@H](O)[C@H]6OC6O[C@H](CO)[C@@H](O)[C@H](O)[C@H]6O)C(C)(C)[C@@H]5CC[C@]43C)[C@@H]2C1` (some centres undefined) and `CC1(C)CC[C@]2(C(=O)O)CC[C@]3(C)C(=CC[C@@H]4[C@@]5(C)CC[C@H](O[C@@H]6O[C@H](C(=O)O)[C@@H](O)[C@H](O)[C@H]6O)C(C)(C)[C@@H]5CC[C@]43C)[C@@H]2C1` are within 1.5-fold of each other in IC50: 7 µM for the first, 6 µM for the second.

Going from `CC1(C)CCC[C@]2(C)[C@H]3C[C@@H]([C@]4(CO)O[C@@H]4CO)O[C@]3(C)CC[C@@H]12` to `C/C(=C\CC/C=C(\C)CC/C=C(\C)CC[C@@H](O)C(C)(C)O)CC/C=C(\C)CC[C@@H](O)C(C)(C)O`, the IC50 falls from greater than 10 µM to 7 µM. The second is the more potent here.
